Consider two molecules from patent US20240109836A1, “NON-HALL[…] ANALOGS FOR TREATMENT OF NEUROLOGICAL AND PSYCHIATRIC DISORDERS” (The Trustees of Columbia University in the City of New York, priority 2021, published 2024).

The target of one test is 5-HT2A (Homo sapiens, UniProt P28223). Kind of test: IP1 agonist functional assay. The test is classed as cell-based.
The next test concerns the target 5-HT2B (Homo sapiens, UniProt P41595). In words: IP1 agonist functional assay. The test is classed as cell-based.
Test [1] is described as follows: Head twitch response assay. The test is classed as in vivo, Mice (C57bl/6J). The note with it: mice, 1, 3, 10, and 30 mg/kg s.c., vs positive control DOI. How it is done: FIG. 2. […] N=5 mice in each cohort. […] Drugs were administered s.c.
Mice (C57bl/6J, 8-15 weeks, 26-33 g) were weighed and moved to the testing room 30 minutes prior to experimentation. Mice were administered the experimental compound at a selected dose s.c. and then immediately moved to a new cage. Before beginning the test, mice were allowed to remain in this cage for a set amount of time ranging 0-10 min based on the compound. The head twitch assay was performed by a trained observer watching the mouse for a 10 min duration and recording the total number of head twitches observed.
DOI was tested at the doses of 1, 3, 10 and 30 mg/kg (s.c., 5 mice per dose) and testing began immediately after administration of the compound. Ariadne (32), (29) and (38) were tested at the doses of 1, 3, 10, and 30 mg/kg (s.c., 5 mice per dose) and there was a 10 min interval between treatment and testing.

SMILES strings stand for the structures.

Sequence of 5-HT2A (P28223 whole entry): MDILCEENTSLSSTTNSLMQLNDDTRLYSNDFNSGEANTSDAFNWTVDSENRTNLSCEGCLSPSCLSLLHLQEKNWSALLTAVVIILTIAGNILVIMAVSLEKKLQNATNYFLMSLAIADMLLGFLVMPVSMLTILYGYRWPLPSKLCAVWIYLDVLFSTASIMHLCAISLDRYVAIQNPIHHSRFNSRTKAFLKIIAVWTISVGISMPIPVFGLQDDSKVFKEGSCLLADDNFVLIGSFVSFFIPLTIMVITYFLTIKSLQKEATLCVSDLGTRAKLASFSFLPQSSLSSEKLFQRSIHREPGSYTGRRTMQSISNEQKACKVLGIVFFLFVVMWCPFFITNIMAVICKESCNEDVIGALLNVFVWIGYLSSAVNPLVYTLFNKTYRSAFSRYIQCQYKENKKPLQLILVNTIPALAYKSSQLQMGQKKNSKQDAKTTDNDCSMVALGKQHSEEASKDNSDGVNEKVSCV
Sequence of 5-HT2B (P41595 whole entry): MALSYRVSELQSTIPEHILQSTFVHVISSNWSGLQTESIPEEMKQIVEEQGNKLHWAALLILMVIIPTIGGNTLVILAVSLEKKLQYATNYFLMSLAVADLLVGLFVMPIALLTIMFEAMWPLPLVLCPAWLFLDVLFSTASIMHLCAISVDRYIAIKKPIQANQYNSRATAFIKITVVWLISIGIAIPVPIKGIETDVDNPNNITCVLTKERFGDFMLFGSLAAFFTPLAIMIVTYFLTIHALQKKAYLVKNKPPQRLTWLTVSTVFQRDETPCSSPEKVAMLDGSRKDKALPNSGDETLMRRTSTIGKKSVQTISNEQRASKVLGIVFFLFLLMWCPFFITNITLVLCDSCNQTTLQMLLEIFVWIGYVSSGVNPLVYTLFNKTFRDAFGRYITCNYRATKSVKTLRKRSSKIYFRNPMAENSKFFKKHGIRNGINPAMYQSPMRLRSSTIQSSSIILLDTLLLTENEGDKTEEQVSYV

Consider `CCC(N)Cc1cc(OC)c(C(F)(F)F)cc1OC` (stereo not drawn) [compound 29, 1-(2,5-dimethoxy-4-(trifluoromethyl)phenyl) butan-2-amine], for which the results for the 50% effective concentration (EC50) at 5-HT2A and on 5-HT2B were 0.034 µM and 5.9 µM, respectively. Further, the “Selectivity (EC50 2B ÷ EC50 2A)” value at 5-HT2A (5HT2A versus 5HT2B, relative agonism potencies) is on record as 174x. The “psychedelic activity (number of head twitches in a 10-min period)” value in test [1] is listed as “lower psychedelic activity”.
In the case of `CCC(N)Cc1cc(OC)c(COC)cc1OC` (stereo not drawn) [compound 38, 1-(2,5-dimethoxy-4-(methoxymethyl)phenyl)butan-2-amine], a half-maximal effect on 5-HT2A (EC50) was put at 3.8 µM. Further, the “psychedelic activity (number of head twitches in a 10-min period)” value in test [1] is on record as “lower psychedelic activity”.

By EC50 is commonly meant the midpoint of the concentration-response curve. A low value points to greater potency.
